# Experimental data published in the supplement of paper PMC10307832.
# Tests used:
# Assay in all cases: relative viability (nuclei count vs DMSO), 5 days (fraction); higher = more cells survive
# FH535 + Olaparib = compound: CC1=C(C=CC(=C1)[N+](=O)[O-])NS(=O)(=O)C2=C(C=CC(=C2)Cl)Cl [FH535] + O=C(c1cc(Cc2n[nH]c(=O)c3ccccc23)ccc1F)N1CCN(C(=O)C2CC2)CC1 [Olaparib] (partner 8 µM)
# Outline: (§1)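 Relative viability was taken as the ratio of nuclei in treated wells to nuclei in vehicle wells. Lung cancer cell lines in 1536-well plates received compounds by pin tool one day after seeding, either one drug alone or a fixed anchor-drug dose plus five library-drug doses (not always all listed) in √10 steps. Nuclei were counted on 4× images after 5 days of treatment, and values are medians of duplicate plates.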
# FH535 + Decitabine = compound: CC1=C(C=CC(=C1)[N+](=O)[O-])NS(=O)(=O)C2=C(C=CC(=C2)Cl)Cl [FH535] + Nc1ncn([C@H]2C[C@H](O)[C@@H](CO)O2)c(=O)n1 [Decitabine] (partner 2 µM)
# Outline: as §1
# FH535 + Vorinostat = compound: CC1=C(C=CC(=C1)[N+](=O)[O-])NS(=O)(=O)C2=C(C=CC(=C2)Cl)Cl [FH535] + O=C(CCCCCCC(=O)Nc1ccccc1)NO [Vorinostat] (partner 1 µM)
# Outline: as §1
# FH535 + Alpelisib = compound: CC1=C(C=CC(=C1)[N+](=O)[O-])NS(=O)(=O)C2=C(C=CC(=C2)Cl)Cl [FH535] + Cc1nc(NC(=O)N2CCC[C@H]2C(N)=O)sc1-c1ccnc(C(C)(C)C(F)(F)F)c1 [Alpelisib] (partner 2 µM)
# Outline: as §1
# FH535 + Pemetrexed = compound: CC1=C(C=CC(=C1)[N+](=O)[O-])NS(=O)(=O)C2=C(C=CC(=C2)Cl)Cl [FH535] + Nc1nc2[nH]cc(CCc3ccc(C(=O)N[C@@H](CCC(=O)O)C(=O)O)cc3)c2c(=O)[nH]1 [Pemetrexed] (partner 0.2 µM)
# Outline: as §1
Cell Line,relative viability (FH535 + Olaparib; first compound 0.04 µM),relative viability (FH535 + Olaparib; first compound 0.1265 µM),relative viability (FH535 + Olaparib; first compound 0.4 µM),relative viability (FH535 + Olaparib; first compound 1.265 µM),relative viability (FH535 + Decitabine; first compound 0.04 µM),relative viability (FH535 + Decitabine; first compound 0.1265 µM),relative viability (FH535 + Decitabine; first compound 0.4 µM),relative viability (FH535 + Decitabine; first compound 1.265 µM),relative viability (FH535 + Vorinostat; first compound 0.04 µM),relative viability (FH535 + Vorinostat; first compound 0.1265 µM),relative viability (FH535 + Vorinostat; first compound 0.4 µM),relative viability (FH535 + Vorinostat; first compound 1.265 µM),relative viability (FH535 + Alpelisib; first compound 0.04 µM),relative viability (FH535 + Alpelisib; first compound 0.1265 µM),relative viability (FH535 + Alpelisib; first compound 0.4 µM),relative viability (FH535 + Alpelisib; first compound 1.265 µM),relative viability (FH535 + Pemetrexed; first compound 0.04 µM),relative viability (FH535 + Pemetrexed; first compound 0.1265 µM),relative viability (FH535 + Pemetrexed; first compound 0.4 µM),relative viability (FH535 + Pemetrexed; first compound 1.265 µM)
NCI-H1915,0.208,0.286,0.242,0.236,0.243,0.252,0.263,0.265,0.44,0.481,0.534,0.532,1,1.07,1.05,0.738,0.472,0.522,0.498,0.487
PC-3 [JPC-3],1.12,1.08,1.04,0.733,0.865,0.805,0.756,0.74,0.757,0.769,0.687,0.529,1,1.07,0.951,0.686,1.1,1.11,0.745,0.652
SW 1573,0.399,0.497,0.473,0.34,0.464,0.515,0.52,0.411,0.614,0.666,1.04,0.66,0.726,0.693,0.623,0.689,0.768,0.745,0.902,0.755
NCI-H1437,0.608,0.575,0.491,0.336,0.526,0.554,0.488,0.344,0.905,0.847,0.629,0.304,0.982,0.968,0.897,0.468,0.297,0.328,0.284,0.2
NCI-H1734,0.539,0.715,0.635,0.613,0.501,0.501,0.56,0.471,0.547,0.784,0.822,0.778,0.651,0.715,0.693,0.617,0.45,0.434,0.415,0.388
LK-2,0.579,0.615,0.942,0.735,0.254,0.26,0.298,0.286,0.166,0.301,0.29,0.485,0.915,1.06,1.09,1.01,0.271,0.288,0.278,0.307
HCC-15,0.702,0.706,0.688,0.519,0.58,0.58,0.604,0.451,0.733,0.85,0.838,0.696,0.864,0.819,0.85,0.646,0.256,0.216,0.229,0.212
HCC-366,0.302,0.333,0.373,0.332,0.308,0.342,0.335,0.293,0.131,0.416,0.34,0.261,0.35,0.485,0.478,0.349,0.169,0.134,0.174,0.159
NCI-H661,0.729,0.743,0.66,0.515,0.546,0.609,0.566,0.46,0.745,0.821,0.799,0.687,0.607,0.55,0.518,0.374,0.903,0.96,0.839,0.66
NCI-H2405,0.882,0.832,0.765,0.524,0.688,0.75,0.689,0.571,0.945,0.965,0.776,0.458,0.685,0.843,0.84,0.585,0.977,1.01,0.769,0.565
LXF-289,0.916,1.06,1.03,0.587,0.357,0.422,0.369,0.336,0.58,0.762,0.698,0.574,0.958,0.98,0.91,0.794,0.775,0.948,0.95,0.751
BEN,1.02,1.1,0.831,0.636,0.676,0.703,0.573,0.498,0.51,0.583,0.548,0.525,0.929,0.998,0.868,0.748,0.708,0.755,0.638,0.613
NCI-H2023,0.48,0.5,0.474,0.368,0.218,0.223,0.236,0.213,0.473,0.703,0.663,0.537,0.659,0.629,0.686,0.604,0.194,0.219,0.249,0.21
NCI-H1355,0.649,0.796,0.709,0.476,0.334,0.325,0.368,0.36,0.574,0.631,0.565,0.534,0.786,0.87,0.818,0.401,1.03,1.05,0.984,0.91
NCI-H1793,0.801,0.94,0.826,0.454,0.449,0.571,0.487,0.422,0.505,0.519,0.63,0.568,0.597,0.721,0.618,0.541,0.655,0.932,0.66,0.584
